EP3643303A1, “COMPOUNDS FOR USE IN THE TREATMENT OR PREVENTION OF FIBROTIC DISEASES; PHARMACEUTICAL, COSMETIC COMPOSITIONS AND USES THEREOF” (InnovativeHealth Group SL, priority 2018, dated 2020)

Experiments:
mouse seizure model = details: Leite et al. 1982; cited from earlier work
TRPV-1 = TRPV-1 (Homo sapiens, UniProt Q8NER1); assay: Capsaicin-induced cytotoxicity (YOYO-1, Incucyte) in HEK-293T-TRPV1 cells; type: cell-based; design: expressed in transfected cells; host or cells: HEK-293T; details: Capsaicin 1 µM for 3 h, Figure 2B
Protocol: Capsaicin-induced cytotoxicity as a model of TRPV-1 agonistic assay was also investigated in HEK-293T-TRPV1 cells. The cells (2x10^4/well) were cultured in triplicate in 96-well microtiter plates in 200 µL of complete medium and incubated with (-)CBD or (+)CBD and then stimulated with the agonist Capsaicin (1 µM) for 3 h. Capzasepine (10 µM) was used as the positive control of TRPV-1 antagonism. Then, TRPV-1 induced cytotoxicity was measured by fluorescence using the die YOYO-1 (Life Technologies). YOYO-1 was diluted in cell culture medium and added to a final concentration of 0.1 µM to both experimental and control wells. YOYO-1 is a cell impermeant cyanine dimer nucleic acid stain that can only enter cells with a compromised plasma membrane and fluorescently stain the nuclear DNA. By adding YOYO-1 to damaged cells an increase in YOYO-1 fluorescence is detected. Treated cells are placed in an Incucyte FLR imaging system, and the YOYO-1 fluorescence is measured after 3 h. […] Object counting analysis is performed using the Incucyte FLR software to calculate the total number of YOYO-1 fluorescence positive cells and total DNA containing objects (end point). The cytotoxicity index is calculated by dividing the number of YOYO-1 fluorescence positive objects by the total number of DNA containing objects for each treatment group.

α-SMA = α-SMA expression by Western blot in TGFβ-treated NIH-3T3 cells (myofibroblast differentiation); type: cell-based; details: 1 h preincubation, TGFβ 10 ng/ml 24 h; Figure 5
Protocol: It is well known that TGFβ drives the conversion of fibroblasts into myofibroblasts, and the accumulation of myofibroblasts cells in fibrotic skin is a hallmark of SSc. Myofibroblasts are characterized by the novo synthesis of α-smooth muscle actin (a-SMA) fibers. To investigate α-SMA expression NIH-3T3 cells were preincubated with either (+)CBD or (-)CBD for 1 h and then treated with TFGβ (10 ng/ml) for 24 h. Cells were washed with PBS and proteins extracted in 50 µl of lysis buffer (50 mM Tris-HCl pH 7.5, 150 mM NaCl, 10% glycerol and 1% NP-40) supplemented with 10mM NaF, 1 mM Na3VO4, 10 µg/ml leupeptine, 1 µg/ml pepstatin and aprotinin, and 1 µl/ml PMSF saturated. Protein concentration was determined by the Bradford assay (Bio-Rad, CA, USA) and 30 µg of proteins were boiled at 95 °C in Laemmli buffer and electrophoresed in 10% SDS/PAGE gels. Separated proteins were transferred to PVDF membranes (20V for 30 min) and blocked in TBS solution containing 0.1% Tween 20 and 5% non-fat dry milk for 1 hour at room temperature. Immunodetection of specific proteins was carried out by incubation with primary antibody against α-SMA (1:500; sc-32251, Santa Cruz). After washing membranes, horseradish peroxidase-conjugated secondary antibody was added and detected by chemiluminescence system (GE Healthcare Europe GmbH). […]

NHDFs = assay: Fibroblast migration scratch (wound healing) assay in NHDFs; type: cell-based, human; details: Figure 6
Protocol: Migration of skin fibroblast plays a crucial role not only in normal wound healing but also in fibrotic diseases. To further analyze this point, it was tested if the anti-fibrotic effect of (-)CBD could be associated with reduced fibroblast migration. To investigate this possibility, the effect of (-)CBD on TGFβ-induced wound healing was investigated. NHDFs (2x10^3 cells) were seeded in complete DMEM in a 96-well Essen ImageLock plates (Essen BioScience). When cells reached confluence, wound scratches were made using the 96-pin WoundMaker (Essen BioScience). Then, culture medium was replaced by DMEM supplemented with 1% antibiotics and with mitomycin C (10 ng/ml) to block cell proliferation. (-)CBD and TGFβ1 10 ng/ml were added in parallel. Wound healing activity was analyzed using IncuCyte HD system by taking images every 3 h for 48 h and the percentage of wound confluence calculated with the IncuCyte software.

[1] = system: Il13, IL1β, IL6, CCL2, TGFβ and IL4; assay: Real-time quantitative PCR of inflammatory and fibrotic cytokines in skin of BLM mice; type: in vivo; details: mRNA, 2^-ΔΔCt, Figure 11
Protocol: Total RNA was isolated from mice frozen skin tissue using QIAzol lysis reagent (Qiagen, Hilden, Germany) and purified with RNeasy mini kit (Qiagen). Total RNA (1 µg) was retrotranscribed using the iScript™ cDNA Synthesis Kit (Bio-Rad), and the cDNA generated was analysed by real-time PCR using the iQTM SYBR Green Supermix (Bio-Rad) using a CFX96 Real-Time PCR Detection System (Bio-Rad). […] The GAPDH housekeeping gene was used to standardize the mRNA expression levels in every sample. Expression levels were calculated using the 2^-ΔΔCt method. Gene expression were normalized to GADPH mRNA levels in each sample and expressed using the 2^-ΔΔCt method. Table 1. List of mouse primer sequences used in quantitative Polymerase Chain Reaction

[2] = system: diabetes-associated myocardial fibrosis; details: Rajesh et al. 2010; cited from earlier work
[3] = system: activated hepatic stellate cells; details: Lim et al. 2011; cited from earlier work

Sequence of TRPV-1 (Q8NER1 whole entry): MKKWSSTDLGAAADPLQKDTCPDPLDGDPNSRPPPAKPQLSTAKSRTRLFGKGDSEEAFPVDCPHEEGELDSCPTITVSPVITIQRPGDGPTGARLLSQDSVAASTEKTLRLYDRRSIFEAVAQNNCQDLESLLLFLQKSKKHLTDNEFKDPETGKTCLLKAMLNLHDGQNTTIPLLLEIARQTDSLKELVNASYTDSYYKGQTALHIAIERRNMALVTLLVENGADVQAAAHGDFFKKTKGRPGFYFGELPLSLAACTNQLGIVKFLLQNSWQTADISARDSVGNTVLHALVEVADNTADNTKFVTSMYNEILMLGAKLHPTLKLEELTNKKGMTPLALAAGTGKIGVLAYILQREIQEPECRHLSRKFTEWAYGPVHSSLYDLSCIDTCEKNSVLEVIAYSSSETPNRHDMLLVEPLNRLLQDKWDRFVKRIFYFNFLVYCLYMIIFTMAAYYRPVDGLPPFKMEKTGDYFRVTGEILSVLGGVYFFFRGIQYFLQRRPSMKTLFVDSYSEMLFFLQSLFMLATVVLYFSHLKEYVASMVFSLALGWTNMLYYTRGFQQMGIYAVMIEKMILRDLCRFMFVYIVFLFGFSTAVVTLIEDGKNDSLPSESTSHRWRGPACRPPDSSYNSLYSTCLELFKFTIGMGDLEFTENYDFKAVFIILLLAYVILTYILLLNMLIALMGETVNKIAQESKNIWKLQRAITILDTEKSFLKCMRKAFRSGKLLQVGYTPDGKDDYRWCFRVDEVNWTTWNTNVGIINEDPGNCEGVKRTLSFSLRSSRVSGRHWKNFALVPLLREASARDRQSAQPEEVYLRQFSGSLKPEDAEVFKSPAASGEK

Row | Compound | anticonvulsant activity (mouse seizure model) | capsaicin-induced cytotoxicity (cytotoxicity index) (TRPV-1) | expression α-SMA protein induced by TGFβ (α-SMA) | wound closure induced by TGFβ1 (NHDFs; TGFβ1 10 ng/ml, 48 h, concentration-dependent) | wound closure induced by rhIL-4 (NHDFs; rhIL-4, concentration-dependent) | expression levels of CCL2 in the skin [1] | expression levels of IL1β in the skin [1] | expression levels of IL4 in the skin [1] | expression levels of IL6 in the skin [1] | expression levels of Il13 in the skin [1] | expression levels of TGFβ in the skin [1] | diabetes-associated myocardial fibrosis [2] | cell death of activated hepatic stellate cells [3]
1 | C=C(C)[C@H]1CCC(C)=C[C@@H]1c1c(O)cc(CCCCC)cc1O [(+)CBD, (+)Cannabidiol] | more active than the (-)CBD isomer | prevent capsaicin-induced calcium mobilization | attenuated |  |  |  |  |  |  |  |  |  | 
2 | C=C(C)[C@@H]1CCC(C)=C[C@H]1c1c(O)cc(CCCCC)cc1O [(-)CBD, 2-[(1R,6R)-3-methyl-6-prop-1-en-2-ylcyclohex-2-en-1-yl]-5-pentylbenzene-1,3-diol] |  | prevent capsaicin-induced calcium mobilization | attenuated | significantly attenuated | significantly attenuated | significantly reduced | significantly reduced | significantly reduced | significantly reduced | significantly reduced | significantly reduced | attenuates | induces cell death
